For one series, the target named is D(3) dopamine receptor (Homo sapiens, UniProt P35462).
A further series addresses Vasopressin V2 receptor (Homo sapiens, UniProt P30518).
Series [1] deals with T1, Alpha-2A adrenergic receptor (Homo sapiens, UniProt P08913).
T1 sequence (P08913 whole entry): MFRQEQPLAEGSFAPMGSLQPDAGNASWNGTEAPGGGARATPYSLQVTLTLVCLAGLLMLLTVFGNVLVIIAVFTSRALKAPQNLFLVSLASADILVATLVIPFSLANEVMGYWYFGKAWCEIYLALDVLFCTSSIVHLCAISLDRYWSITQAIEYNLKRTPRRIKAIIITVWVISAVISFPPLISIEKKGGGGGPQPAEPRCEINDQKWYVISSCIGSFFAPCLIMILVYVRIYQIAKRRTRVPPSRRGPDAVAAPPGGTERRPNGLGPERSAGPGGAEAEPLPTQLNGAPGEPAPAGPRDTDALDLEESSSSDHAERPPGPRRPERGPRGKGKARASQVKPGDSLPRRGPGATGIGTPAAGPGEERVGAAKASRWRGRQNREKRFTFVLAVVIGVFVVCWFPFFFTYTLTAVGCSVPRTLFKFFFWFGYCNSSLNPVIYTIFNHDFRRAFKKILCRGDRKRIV
The class given is functional, cell-based.

The target in series [2] is Gamma-aminobutyric acid receptor subunit alpha-1 (Rattus norvegicus, UniProt P62813). The class given is functional.
Sequence of Gamma-aminobutyric acid receptor subunit alpha-1 (P62813 whole entry): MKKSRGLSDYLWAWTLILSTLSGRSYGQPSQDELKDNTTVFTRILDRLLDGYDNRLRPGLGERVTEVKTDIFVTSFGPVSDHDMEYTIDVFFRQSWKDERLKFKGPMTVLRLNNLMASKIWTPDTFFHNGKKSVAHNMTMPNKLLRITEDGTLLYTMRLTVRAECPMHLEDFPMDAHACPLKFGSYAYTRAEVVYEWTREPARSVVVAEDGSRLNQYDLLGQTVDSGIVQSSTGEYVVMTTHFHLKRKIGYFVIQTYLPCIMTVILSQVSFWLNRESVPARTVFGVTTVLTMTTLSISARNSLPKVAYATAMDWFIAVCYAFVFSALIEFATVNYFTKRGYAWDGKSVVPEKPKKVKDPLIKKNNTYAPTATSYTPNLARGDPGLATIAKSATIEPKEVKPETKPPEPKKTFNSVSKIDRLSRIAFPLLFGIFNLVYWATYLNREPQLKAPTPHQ
Series [3] concerns the target Voltage-gated inwardly rectifying potassium channel KCNH2 (Homo sapiens, UniProt Q12809). The class given is functional.
The target of series [4] is Glutamate receptor ionotropic, NMDA 1 (Rattus norvegicus, UniProt P35439).
For series [5], the target named is 5-hydroxytryptamine receptor 2B (Homo sapiens, UniProt P41595). The class given is functional, cell-based.
Sequence of 5-hydroxytryptamine receptor 2B (P41595 whole entry): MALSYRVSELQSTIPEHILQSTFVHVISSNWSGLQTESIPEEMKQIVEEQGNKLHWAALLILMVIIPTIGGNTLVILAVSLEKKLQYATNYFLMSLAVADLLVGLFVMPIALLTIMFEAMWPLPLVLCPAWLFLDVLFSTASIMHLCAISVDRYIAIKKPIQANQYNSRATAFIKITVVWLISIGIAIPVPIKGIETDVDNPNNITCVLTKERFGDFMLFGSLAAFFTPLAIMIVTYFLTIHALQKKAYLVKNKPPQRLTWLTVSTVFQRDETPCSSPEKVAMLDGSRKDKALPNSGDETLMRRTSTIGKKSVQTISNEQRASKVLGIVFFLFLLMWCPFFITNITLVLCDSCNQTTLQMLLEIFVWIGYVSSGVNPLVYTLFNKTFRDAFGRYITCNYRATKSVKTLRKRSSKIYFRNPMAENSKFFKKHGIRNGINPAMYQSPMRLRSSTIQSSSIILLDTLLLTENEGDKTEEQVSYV
Series [6] addresses Delta-type opioid receptor (Homo sapiens, UniProt P41143).
For series [7], the target named is cGMP-inhibited 3',5'-cyclic phosphodiesterase 3A (Homo sapiens, UniProt Q14432). The format is functional.
Sequence of cGMP-inhibited 3',5'-cyclic phosphodiesterase 3A (Q14432 whole entry): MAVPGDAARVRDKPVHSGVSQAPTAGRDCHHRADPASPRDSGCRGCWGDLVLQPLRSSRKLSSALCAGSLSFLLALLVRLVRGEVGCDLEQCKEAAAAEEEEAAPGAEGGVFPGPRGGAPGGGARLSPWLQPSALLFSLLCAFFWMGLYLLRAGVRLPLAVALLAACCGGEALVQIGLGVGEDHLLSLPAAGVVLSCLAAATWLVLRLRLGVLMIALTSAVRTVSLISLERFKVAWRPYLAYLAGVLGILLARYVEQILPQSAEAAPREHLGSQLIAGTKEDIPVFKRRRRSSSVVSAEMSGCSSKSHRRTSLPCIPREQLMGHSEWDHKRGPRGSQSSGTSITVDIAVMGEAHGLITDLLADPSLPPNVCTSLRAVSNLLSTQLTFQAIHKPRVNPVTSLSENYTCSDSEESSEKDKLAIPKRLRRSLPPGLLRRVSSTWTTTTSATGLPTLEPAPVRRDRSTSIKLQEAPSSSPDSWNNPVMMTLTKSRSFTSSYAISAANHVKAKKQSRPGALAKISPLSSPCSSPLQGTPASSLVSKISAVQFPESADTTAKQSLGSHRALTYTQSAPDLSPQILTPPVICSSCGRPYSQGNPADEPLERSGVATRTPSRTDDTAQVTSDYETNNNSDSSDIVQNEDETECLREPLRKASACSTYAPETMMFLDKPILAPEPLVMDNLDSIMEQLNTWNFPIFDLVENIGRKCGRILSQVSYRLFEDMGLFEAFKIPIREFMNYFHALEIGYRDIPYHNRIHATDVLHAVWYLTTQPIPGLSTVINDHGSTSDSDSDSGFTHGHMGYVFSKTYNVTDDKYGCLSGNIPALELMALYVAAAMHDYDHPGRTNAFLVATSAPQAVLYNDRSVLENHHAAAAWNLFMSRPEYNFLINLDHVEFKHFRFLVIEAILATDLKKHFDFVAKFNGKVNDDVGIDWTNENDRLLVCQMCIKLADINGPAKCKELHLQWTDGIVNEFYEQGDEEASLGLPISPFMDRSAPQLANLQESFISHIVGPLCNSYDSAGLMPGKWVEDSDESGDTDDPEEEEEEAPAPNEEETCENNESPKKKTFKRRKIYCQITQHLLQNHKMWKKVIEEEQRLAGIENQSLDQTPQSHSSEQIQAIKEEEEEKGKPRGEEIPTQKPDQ
Another series concerns the target T2, Adenosine receptor A1 (Homo sapiens, UniProt P30542).
T2 sequence (P30542 whole entry): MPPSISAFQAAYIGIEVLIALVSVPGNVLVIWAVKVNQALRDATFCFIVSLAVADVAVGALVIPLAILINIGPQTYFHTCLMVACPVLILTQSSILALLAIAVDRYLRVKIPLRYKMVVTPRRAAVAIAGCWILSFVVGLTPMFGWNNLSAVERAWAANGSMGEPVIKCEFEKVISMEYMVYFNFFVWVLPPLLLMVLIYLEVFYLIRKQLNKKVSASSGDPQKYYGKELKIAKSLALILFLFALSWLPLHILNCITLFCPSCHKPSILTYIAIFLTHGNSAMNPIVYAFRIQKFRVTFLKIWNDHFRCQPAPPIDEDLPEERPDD

For series [8], the target named is Sodium-dependent dopamine transporter (Homo sapiens, UniProt Q01959).
The target in series [9] is 3',5'-cyclic-AMP phosphodiesterase 4D (Homo sapiens, UniProt Q08499). The class given is functional.
Sequence of 3',5'-cyclic-AMP phosphodiesterase 4D (Q08499 whole entry): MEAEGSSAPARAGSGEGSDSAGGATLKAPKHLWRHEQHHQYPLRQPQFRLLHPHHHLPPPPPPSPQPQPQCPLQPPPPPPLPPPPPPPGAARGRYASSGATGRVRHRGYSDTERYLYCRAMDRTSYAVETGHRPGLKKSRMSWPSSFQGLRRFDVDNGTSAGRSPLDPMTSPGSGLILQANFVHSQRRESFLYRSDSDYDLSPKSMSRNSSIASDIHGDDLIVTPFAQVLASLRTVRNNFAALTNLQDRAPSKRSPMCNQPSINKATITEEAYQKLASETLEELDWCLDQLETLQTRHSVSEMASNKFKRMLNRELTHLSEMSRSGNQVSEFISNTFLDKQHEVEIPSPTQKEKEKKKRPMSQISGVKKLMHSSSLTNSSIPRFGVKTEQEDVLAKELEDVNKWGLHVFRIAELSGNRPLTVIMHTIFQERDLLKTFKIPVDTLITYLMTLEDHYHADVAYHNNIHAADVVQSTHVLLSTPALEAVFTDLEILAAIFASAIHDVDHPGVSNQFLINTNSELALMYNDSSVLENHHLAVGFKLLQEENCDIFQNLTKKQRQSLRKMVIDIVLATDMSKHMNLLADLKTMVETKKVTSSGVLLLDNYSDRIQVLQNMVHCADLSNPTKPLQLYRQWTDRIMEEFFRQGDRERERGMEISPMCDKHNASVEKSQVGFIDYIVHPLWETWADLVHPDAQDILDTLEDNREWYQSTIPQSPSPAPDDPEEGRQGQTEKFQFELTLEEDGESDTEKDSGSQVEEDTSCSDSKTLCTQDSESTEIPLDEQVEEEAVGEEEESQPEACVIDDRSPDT
Another series addresses T3, B2 bradykinin receptor (Homo sapiens, UniProt P30411).
T3 sequence (P30411 whole entry): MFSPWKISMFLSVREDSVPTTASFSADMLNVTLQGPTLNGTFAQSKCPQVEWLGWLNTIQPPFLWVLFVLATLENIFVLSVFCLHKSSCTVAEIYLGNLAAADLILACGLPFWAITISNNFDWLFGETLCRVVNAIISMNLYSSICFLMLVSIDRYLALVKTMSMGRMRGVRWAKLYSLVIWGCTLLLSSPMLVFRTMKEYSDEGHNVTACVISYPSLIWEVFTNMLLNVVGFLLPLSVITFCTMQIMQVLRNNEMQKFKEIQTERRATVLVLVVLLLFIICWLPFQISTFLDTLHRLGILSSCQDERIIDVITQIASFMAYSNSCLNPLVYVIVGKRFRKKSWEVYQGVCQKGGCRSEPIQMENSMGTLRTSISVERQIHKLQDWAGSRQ

Series [10] concerns the target T1, Alpha-2A adrenergic receptor. The class given is functional, cell-based. This is another data set of the same source.
In a further series the target is T4, Glucocorticoid receptor (Homo sapiens, UniProt P04150).
T4 sequence (P04150 whole entry): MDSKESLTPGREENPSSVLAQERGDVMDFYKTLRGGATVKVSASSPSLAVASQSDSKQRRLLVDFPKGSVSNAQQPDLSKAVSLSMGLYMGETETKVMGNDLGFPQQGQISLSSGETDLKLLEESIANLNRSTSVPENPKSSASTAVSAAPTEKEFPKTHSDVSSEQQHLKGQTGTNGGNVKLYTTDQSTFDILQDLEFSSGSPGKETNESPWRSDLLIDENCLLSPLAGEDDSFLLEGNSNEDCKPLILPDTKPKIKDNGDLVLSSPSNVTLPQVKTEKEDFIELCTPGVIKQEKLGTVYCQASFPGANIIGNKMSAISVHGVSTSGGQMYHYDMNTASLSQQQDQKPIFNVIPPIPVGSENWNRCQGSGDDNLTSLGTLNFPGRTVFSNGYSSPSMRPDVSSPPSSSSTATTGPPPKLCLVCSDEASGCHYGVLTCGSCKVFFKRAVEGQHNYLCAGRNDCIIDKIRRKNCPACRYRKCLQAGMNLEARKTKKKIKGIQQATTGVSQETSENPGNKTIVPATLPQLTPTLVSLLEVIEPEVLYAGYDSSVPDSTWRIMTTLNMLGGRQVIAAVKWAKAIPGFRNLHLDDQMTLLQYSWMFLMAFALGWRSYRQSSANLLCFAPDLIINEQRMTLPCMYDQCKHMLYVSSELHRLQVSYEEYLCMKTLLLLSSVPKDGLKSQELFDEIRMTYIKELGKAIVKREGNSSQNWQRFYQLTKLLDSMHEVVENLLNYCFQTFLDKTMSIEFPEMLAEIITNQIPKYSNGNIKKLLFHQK

The target in another series is Cannabinoid receptor 1 (Homo sapiens, UniProt P21554). The format is functional, cell-based.
Sequence of Cannabinoid receptor 1 (P21554 whole entry): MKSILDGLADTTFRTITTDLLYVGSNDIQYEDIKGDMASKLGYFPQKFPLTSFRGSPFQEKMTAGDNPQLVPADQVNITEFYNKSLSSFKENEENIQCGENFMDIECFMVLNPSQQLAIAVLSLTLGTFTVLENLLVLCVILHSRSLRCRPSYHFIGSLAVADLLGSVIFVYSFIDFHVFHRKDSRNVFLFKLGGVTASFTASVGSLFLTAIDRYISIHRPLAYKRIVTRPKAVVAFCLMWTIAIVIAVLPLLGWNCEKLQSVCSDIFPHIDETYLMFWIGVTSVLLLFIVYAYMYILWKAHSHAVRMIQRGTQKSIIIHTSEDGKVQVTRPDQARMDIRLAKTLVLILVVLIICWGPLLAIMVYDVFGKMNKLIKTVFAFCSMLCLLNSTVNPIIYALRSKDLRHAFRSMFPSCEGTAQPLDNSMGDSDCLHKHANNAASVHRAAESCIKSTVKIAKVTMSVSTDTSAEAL

Results on 13 compounds are retold here after ChEMBL document CHEMBL5291721, “A preclinical secondary pharmacology resource illuminates target-adverse drug reaction associations of marketed drugs” (Nat Commun, 2023).
Note: assay procedure not described here.

Sequence of Delta-type opioid receptor (P41143 whole entry): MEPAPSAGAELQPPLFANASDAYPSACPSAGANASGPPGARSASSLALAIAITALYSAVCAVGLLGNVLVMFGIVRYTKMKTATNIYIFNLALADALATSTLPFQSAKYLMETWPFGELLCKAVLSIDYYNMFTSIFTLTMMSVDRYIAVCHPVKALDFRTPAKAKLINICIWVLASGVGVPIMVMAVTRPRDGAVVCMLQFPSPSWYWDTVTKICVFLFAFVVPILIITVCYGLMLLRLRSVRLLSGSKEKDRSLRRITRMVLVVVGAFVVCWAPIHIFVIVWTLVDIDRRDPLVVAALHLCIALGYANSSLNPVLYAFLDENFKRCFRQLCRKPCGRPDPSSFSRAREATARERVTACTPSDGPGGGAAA
Sequence of D(3) dopamine receptor (P35462 whole entry): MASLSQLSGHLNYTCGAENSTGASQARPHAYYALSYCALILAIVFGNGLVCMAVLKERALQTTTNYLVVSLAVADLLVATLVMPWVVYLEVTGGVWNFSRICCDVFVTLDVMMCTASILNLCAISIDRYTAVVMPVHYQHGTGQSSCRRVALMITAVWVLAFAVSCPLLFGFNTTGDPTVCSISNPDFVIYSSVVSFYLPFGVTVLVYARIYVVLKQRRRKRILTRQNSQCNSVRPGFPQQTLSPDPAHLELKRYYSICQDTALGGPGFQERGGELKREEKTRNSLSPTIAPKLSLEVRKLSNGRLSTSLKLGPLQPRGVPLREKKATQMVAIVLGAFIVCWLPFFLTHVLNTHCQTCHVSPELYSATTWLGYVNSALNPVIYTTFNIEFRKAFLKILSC
Sequence of Vasopressin V2 receptor (P30518 whole entry): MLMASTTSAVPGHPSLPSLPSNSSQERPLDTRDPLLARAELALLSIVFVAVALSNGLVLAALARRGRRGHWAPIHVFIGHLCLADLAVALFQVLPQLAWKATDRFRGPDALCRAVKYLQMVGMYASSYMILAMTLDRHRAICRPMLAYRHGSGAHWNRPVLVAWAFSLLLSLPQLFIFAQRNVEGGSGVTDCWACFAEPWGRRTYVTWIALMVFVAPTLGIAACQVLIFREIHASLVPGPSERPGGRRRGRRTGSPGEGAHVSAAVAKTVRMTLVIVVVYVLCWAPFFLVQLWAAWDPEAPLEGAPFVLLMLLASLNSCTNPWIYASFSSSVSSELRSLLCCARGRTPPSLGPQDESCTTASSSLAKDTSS

As for `O=C1C(O)=C([C@H]2CC[C@H](c3ccc(Cl)cc3)CC2)C(=O)c2ccccc21` [ATOVAQUONE], the AC50 (on D(3) dopamine receptor; on Vasopressin V2 receptor; in [1]; in [2]; in series [3] (read-out: AC50); in series [4]) was > 30 µM in each case. Also, the AC50 (in series [5]; in series [6]; in series [7]; at Adenosine receptor A1; in [8]; in [9]) was > 30 µM throughout. Besides, the AC50 (at B2 bradykinin receptor; in series [10]) was > 30 µM in each case.
`Brc1c(NC2=NCCN2)ccc2nccnc12` [BRIMONIDINE]: the AC50 (at D(3) dopamine receptor; on Glucocorticoid receptor; at Vasopressin V2 receptor; in series [2]; at Cannabinoid receptor 1; in [3] (read-out: AC50)) was > 30 µM in each case. The AC50 (in series [4]; in series [5]; in series [6]; in [7]; on Adenosine receptor A1; in series [8]) was > 30 µM in each case. Moreover, the AC50 (in series [9]; at B2 bradykinin receptor) was > 30 µM each time.
Regarding `CC(CC1c2ccccc2CCc2ccccc21)CN(C)C` (stereo unspecified) [BUTRIPTYLINE], the AC50 was 1.7 µM at D(3) dopamine receptor; > 30 µM in series [1]; > 30 µM in series [2]; > 30 µM at Cannabinoid receptor 1; 2.1 µM in series [3] (read-out: AC50); > 30 µM in [4]. Also, the AC50 in series [5], in [7], in series [9] and in series [10] was > 30 µM each time.
As for `Clc1ccccc1C(c1ccccc1)(c1ccccc1)n1ccnc1` [CLOTRIMAZOLE], the AC50 on D(3) dopamine receptor was > 30 µM; in series [2], > 10 µM; on Cannabinoid receptor 1 it was > 30 µM; in [4], > 10 µM; in series [5] it was > 10 µM; in series [6], > 30 µM. Besides, in series [8], half-maximal activity (AC50) was put at 14.8 µM.
Regarding `COc1ccc2c3c1O[C@H]1[C@@H](O)CC[C@H]4[C@@H](C2)N(C)CC[C@@]341` [DIHYDROCODEINE], the AC50 (on D(3) dopamine receptor; in [1]; in [2]; on Cannabinoid receptor 1; in series [3] (read-out: AC50); in series [4]) was > 30 µM in each case. In addition, the AC50 in series [5], in series [6], in series [7], in [9] and in series [10] was > 30 µM in each case.
As to `NC(=O)OCC(COC(N)=O)c1ccccc1` [FELBAMATE], the AC50 on D(3) dopamine receptor is > 10 µM; at Glucocorticoid receptor, > 10 µM; on Vasopressin V2 receptor, > 10 µM; in [1], > 10 µM; in series [2] it was > 10 µM; in series [3] (read-out: AC50) it was > 30 µM. The AC50 in [4] is > 10 µM; in series [5] it was > 10 µM; in [6], > 30 µM; in series [7], > 30 µM; at Adenosine receptor A1, > 10 µM; in series [8], > 10 µM. In addition, the figures for the AC50 (in series [9]; on B2 bradykinin receptor; in [10]) were > 30 µM, > 10 µM and > 10 µM, respectively.
As for `CO[C@]12C[C@@H](COC(=O)c3cncc(Br)c3)CN(C)[C@@H]1Cc1cn(C)c3cccc2c13` [NICERGOLINE], the AC50 in [3] (read-out: AC50) came to 0.13 µM.
For `Cc1cc(C(C)(C)C)c(O)c(C)c1CC1=NCCN1` [OXYMETAZOLINE], the AC50 is 20.1 µM at D(3) dopamine receptor; > 30 µM in series [2]; > 30 µM at Cannabinoid receptor 1; > 30 µM in [3] (read-out: AC50); > 30 µM in series [4]; > 30 µM in series [6]. In addition, the half-maximal activity concentration (AC50) in [7], in series [8] and in [9] was > 30 µM throughout.
For the compound `C[C@H]1COc2c(C3(N)CC3)c(F)cc3c(=O)c(C(=O)O)cn1c23` [PAZUFLOXACIN], the concentration at half-maximal activity (AC50) at D(3) dopamine receptor is > 30 µM; at Glucocorticoid receptor, > 30 µM; on Vasopressin V2 receptor it was > 10 µM; in series [1], > 10 µM; in series [2] it was > 10 µM; in [3] (read-out: AC50), > 30 µM. Further, the AC50 was > 10 µM in series [4]; > 10 µM in series [5]; > 30 µM in series [6]; > 30 µM in series [7]; > 10 µM on Adenosine receptor A1; > 10 µM in series [8]. Also, the AC50 in series [9] was > 30 µM; on B2 bradykinin receptor, > 10 µM; in series [10] it was > 10 µM.
For the compound `CC/C(=C(\c1ccccc1)c1ccc(OCCN(C)C)cc1)c1ccccc1` [TAMOXIFEN], the half-maximal activity concentration (AC50) at D(3) dopamine receptor was 2.9 µM; in series [1], > 10 µM; in series [2], > 10 µM; in series [4] it was > 10 µM; in [5] it was > 10 µM; in [6] it was > 30 µM. The AC50 was 12.3 µM in [8] and > 10 µM in series [10].
`C#C[C@]1(O)CC[C@H]2[C@@H]3[C@H](C)CC4=C(CCC(=O)C4)[C@H]3CC[C@@]21C` [TIBOLONE]: the AC50 on D(3) dopamine receptor was > 30 µM; at Vasopressin V2 receptor, > 30 µM; in [1] it was > 30 µM; in series [2], 30 µM; at Cannabinoid receptor 1 it was > 30 µM; in series [3] (read-out: AC50), > 30 µM. In addition, the AC50 in [4] was > 30 µM; in [5], > 30 µM; in series [6], > 30 µM; in series [7] it was > 30 µM; on Adenosine receptor A1, > 30 µM; in series [8], 27 µM. Also, the concentration at half-maximal activity (AC50) in series [9] is 6.9 µM; at B2 bradykinin receptor, > 30 µM; in [10] it was > 30 µM.
For `CC1(C)CCC(CN2CCN(c3ccc(C(=O)NS(=O)(=O)c4ccc(NCC5CCOCC5)c([N+](=O)[O-])c4)c(Oc4cnc5[nH]ccc5c4)c3)CC2)=C(c2ccc(Cl)cc2)C1` [VENETOCLAX], the half-maximal activity concentration (AC50) at D(3) dopamine receptor was > 30 µM; in series [3] (read-out: AC50), > 30 µM; in [6] it was > 30 µM; in series [7], > 30 µM; in series [8], 22 µM; in series [9] it was > 30 µM.
Consider THIMEROSAL, for which, in series [3] (human, cellular components), the AC50 was > 30 µM.
